Literature values, collected in patent US20060269513A1, “Pheromone composition” (Kiotech Limited, priority 1997, published 2006).

Test system: humans
Conditions: human olfactory threshold

SMILES: CCCCC(C)CCC(=O)O (stereo not shown) [4-Methyloctanoic acid]
- Threshold concentration for humans (odour): in the region of ppb

SMILES: C[C@]12CC[C@@H](O)C[C@@H]1CC[C@@H]1[C@@H]2CC[C@]2(C)C=CC[C@@H]12 [5-alpha-androst-16-en-3-α-ol]
- Threshold concentration for humans (odour): in the low ppb range

SMILES: CN(C)C [Trimethylamine]
- Threshold concentration for humans (odour): about 1 ppb

SMILES: NCCCCN [putrescine, 1,4-diaminobutane]
- Threshold concentration for humans (odour): in the ppb range
